Experiments:
MCF-7 cells = assay: Breast cancer cell viability assay (CellTiter-Glo, 5 days); format: cell-based; conditions: 5 days' compound exposure; for IC50: Homo sapiens, MCF7, 120 h
Method in brief: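 MCF-7 cells, 320 per well in RPMI with 10% FBS and 20 mM HEPES, adhered overnight, then exposed 5 days to an eleven-point semilog dilution (final 0.3-0.000003 μM). CellTiter-Glo luminescence read; % viability = (sample − cell-free background)/(untreated − background) × 100.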

ER-α in MCF-7 cells = target: T1, ER-α in MCF-7 cells (Homo sapiens, UniProt P03372); assay: Breast cancer cell ER-α in cell western assay (SP1); format: cell-based; design: MCF-7 cells were adjusted to a concentration of 200,000 cells per mL; endogenous in cells; host or cells: MCF-7; conditions: 4 or 24 hr post compound addition; for Emax: MCF7, SP1 antibody, read-out: ER-α In Cell Western Assay (SP1) Max Response; for DC50: SP1 antibody, read-out: ER-α In Cell Western Assay (SP1) IC50
T1 sequence (P03372 1-595): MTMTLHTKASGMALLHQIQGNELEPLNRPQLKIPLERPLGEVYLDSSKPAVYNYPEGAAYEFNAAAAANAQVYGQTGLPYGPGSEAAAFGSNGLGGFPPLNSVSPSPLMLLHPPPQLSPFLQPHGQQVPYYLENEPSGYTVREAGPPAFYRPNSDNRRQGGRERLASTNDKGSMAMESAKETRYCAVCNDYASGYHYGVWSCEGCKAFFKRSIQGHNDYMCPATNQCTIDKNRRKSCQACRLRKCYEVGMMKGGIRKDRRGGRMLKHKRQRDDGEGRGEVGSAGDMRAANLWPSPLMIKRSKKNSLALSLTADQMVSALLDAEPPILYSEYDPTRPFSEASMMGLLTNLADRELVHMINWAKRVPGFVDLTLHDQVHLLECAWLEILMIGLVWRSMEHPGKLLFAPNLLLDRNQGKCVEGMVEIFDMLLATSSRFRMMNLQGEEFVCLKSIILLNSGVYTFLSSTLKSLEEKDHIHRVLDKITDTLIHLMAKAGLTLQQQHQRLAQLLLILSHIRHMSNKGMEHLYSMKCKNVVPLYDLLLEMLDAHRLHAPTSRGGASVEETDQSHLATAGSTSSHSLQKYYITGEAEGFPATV
Method: MCF-7 cells were adjusted to a concentration of 200,000 cells per mL in RPMI containing 10% charcoal-stripped FBS and 20 mM HEPES. 16 microliters of the cell suspension (3200 cells) was added to each well of a poly-D-lysine 384 well plate, and the cells were incubated overnight to allow the cells to adhere. The following day an eleven point, serial semilog dilution of each compound was added to the cells in 16 μL at a final concentration ranging from 0.3-0.000003 μM. At 4 or 24 hr post compound addition, the cells were fixed (10% formalin in PBS) for 20 minutes. Cells were permeablized in PBS 0.1% Triton and blocked with LICOR blocking buffer (50 μl/well, 90°). The wells were then incubated overnight at 4° C. with SP1 rabbit monoclonal Ab (Thermo Scientific) diluted 1:1000 in LICOR blocking buffer/0.1% Tween-20. Wells which were treated with blocking buffer with Tween but no antibody were used as a background control. Wells were washed with 0.1% Tween-20/PBS and then incubated in goat anti-rabbit IRDye™ 800CW (LICOR Inc.; 1:1000) and DRAQ5 DNA dye (1:2000 for 2 mM stock) diluted in LICOR blocking buffer containing 0.1% Tween-20 and 0.01% SDS for 60 minutes. Cells were washed (50 μl/well, 5′ each) in 0.1% Tween-20/PBS. Plates were scanned on a LICOR Odyssey infrared imaging system. Integrated intensities in the 800 nm channel and 700 nm channel were measured to determine levels of ER and DNA respectively. Percent ER levels were determined as follows: (Integrated intensity 800 nm sample/integrated intensity 700 nm sample)/(Integrated intensity 800 nm untreated cells/integrated intensity 700 nm untreated cells)×100=% ER levels.

Compound	MCF7 Viability Assay Max Response (MCF-7 cells)	IC50 (MCF-7 cells) [nM]	Emax (ER-α in MCF-7 cells) [%]	DC50 (ER-α in MCF-7 cells) [nM]
O=C(O)/C=C/c1ccc(/C(=C(\c2ccncc2Cl)C2CCC2)c2ccc3scnc3c2)cc1 [Compound 285]	++ (++ = a single % value ≧ 40%)	≤ 100	≥ 40	≤ 100
CC/C(=C(/c1ccc(/C=C/C(=O)O)cc1)c1cn[nH]c1)c1ccccc1 [Compound 150]	+ (+ = a single % value < 40%)	> 100	≥ 40	> 100
